Data on six molecules can be found in US20220289679A1, “HETEROCYCLIC COMPOUND” (Takeda Pharmaceutical Company Limited, priority 2019, published 2022).

Structures are written as SMILES.

This experiment deals with T1, human GCS (glucosylceramide synthase) (Homo sapiens, UniProt Q16739).
T1 construct: made in house; host or cells: Expi293F cells (transient expression; microsome fraction)
T1 sequence (Q16739 1-394): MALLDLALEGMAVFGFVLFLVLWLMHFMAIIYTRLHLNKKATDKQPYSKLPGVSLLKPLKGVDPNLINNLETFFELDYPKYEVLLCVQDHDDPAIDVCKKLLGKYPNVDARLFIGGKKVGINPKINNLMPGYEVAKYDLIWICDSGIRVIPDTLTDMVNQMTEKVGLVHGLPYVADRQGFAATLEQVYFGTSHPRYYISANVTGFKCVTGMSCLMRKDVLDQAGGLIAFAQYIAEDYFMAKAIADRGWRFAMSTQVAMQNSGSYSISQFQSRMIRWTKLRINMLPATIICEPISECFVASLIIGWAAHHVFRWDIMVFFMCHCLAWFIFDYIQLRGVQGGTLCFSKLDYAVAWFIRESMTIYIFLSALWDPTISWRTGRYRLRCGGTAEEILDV
Briefly: Glucosylceramide Synthase (GCS) Assay. The format is biochemical. The conditions noted are these: test compound 10 μM; microsome fraction of Expi293F cells expressing human GCS; 1.7 μM UDP-glucose, 3 μM C8 ceramide; room temperature 60 min; C8 glucosylceramide by Rapidfire MS/MS; read-out: GCS enzyme inhibitory rate at 10 μM (%). Summed up:
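Test compounds were run at a final 10 μM against liposomal C8 ceramide (3 μM) and UDP-glucose at its Km (1.7 μM). Human GCS came as microsomes from transfected Expi293F cells, incubated 60 min at room temperature, pH 7.5. Product measured by RapidFire MS/MS; 0% and 100% inhibition were DMSO and no-enzyme wells.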
Regarding `Cn1cc(C(=O)Nc2ccc(C(C)(C)C#N)cc2)c(=O)c(-c2ccccc2OCC(F)(F)F)n1` [Example 190, N-[4-(2-cyanopropan-2-yl)phenyl]-2-methyl-5-oxo-6-[2-(2,2,2-trifluoroethoxy)phenyl]-2,5-dihydropyridazine-4-carboxamide], the inhibition at 10 µM amounted to 100%.
Regarding `O=C(Nc1ccc(C(O)(C(F)F)C(F)F)cc1)c1cn(C2COC2)nc(-c2ccccc2OCC(F)F)c1=O` [Example 184, 6-[2-(2,2-difluoroethoxy)phenyl]-2-(oxetan-3-yl)-5-oxo-N-[4-(1,1,3,3-tetrafluoro-2-hydroxypropan-2-yl)phenyl]-2,5-dihydropyridazine-4-carboxamide], the inhibition at 10 µM was 100%.
As to `O=C(Nc1ccc(Cl)cc1)c1cccn(-c2ccccc2OCC(F)(F)F)c1=O` [Example 14, N-(4-chlorophenyl)-2-oxo-1-[2-(2,2,2-trifluoroethoxy)phenyl]-1,2-dihydropyridine-3-carboxamide], the inhibition at 10 µM was found to be 99%.
On to `O=C(Nc1ccc(COCC(F)(F)F)nc1)c1cccn(-c2ccccc2OCC(F)(F)F)c1=O` [Example 74, 2-oxo-N-{6-[(2,2,2-trifluoroethoxy)methyl]pyridin-3-yl}-1-[2-(2,2,2-trifluoroethoxy)phenyl]-1,2-dihydropyridine-3-carboxamide], for which the inhibition at 10 µM came to 99%.
Next, `O=C(Nc1ccc(C(O)(C(F)F)C(F)F)cc1)c1cn(CC2COC2)nc(-c2ccccc2OCC(F)F)c1=O` [Example 175, 6-[2-(2,2-difluoroethoxy)phenyl]-2-[(oxetan-3-yl)methyl]-5-oxo-N-[4-(1,1,3,3-tetrafluoro-2-hydroxypropan-2-yl)phenyl]-2,5-dihydropyridazine-4-carboxamide]: 100%; `CC(C)(O)COc1ccc(NC(=O)c2cccn(-c3ccc(F)cc3OCC(F)(F)F)c2=O)cc1` [Example 60, 1-[4-fluoro-2-(2,2,2-trifluoroethoxy)phenyl]-N-[4-(2-hydroxy-2-methylpropoxy)phenyl]-2-oxo-1,2-dihydropyridine-3-carboxamide]: 92%.
